How the values were obtained:
mSTING = mSTING (Mus musculus, UniProt Q3TBT3); experiment: Radiometric filtration binding competition assay, mSTING
hSTING-WT = hSTING-WT (Homo sapiens (Human), UniProt Q86WV6, H232R); experiment: Radiometric filtration binding competition assay, hSTING-WT
mSTING-R232 = mSTING-R232 (Mus musculus, UniProt Q3TBT3); experiment: STING differential scanning fluorimetry (DSF) assay, mouse STING; conditions: net shift in melting temperature
hSTING-R232 = hSTING-R232 (Homo sapiens (Human), UniProt Q86WV6, H232R); experiment: STING differential scanning fluorimetry (DSF) assay, WT human STING; conditions: WT (R232) human STING aa140-379, net shift in melting temperature
Experimental: A STING DSF assay was performed to determine protein thermostability shift in response to small molecule ligand binding. A STING thermostability shift assay based on differential scanning fluorimetry was used to measure (1) the net shift in melting temperature (ΔTm)between the apo and ligand-bound states of the STING protein and (2) the concentration of the thermal denaturation transition (EC50) as a surrogate measure of binding affinity (K). […] Protein in assay buffer was transferred to a 384 well plate and incubated with the hydrophobic fluorescent dye SYBR Orange. A temperature ramp was applied to the plate and the resulting dye fluorescence was plotted as a function of temperature. The first derivative of this function (dF/dT) was then used to extrapolate the melting temperature of the protein at various concentrations of compound and determine the thermal denaturation profile of a protein/compound complex.
• 1. Protein construct (affinity tag removal vs SUMO-fusion construct) • 2. Protein concentration • 3. Dye concentration • 4. Buffer • 5. Thermal ramp velocity • 6. DMSO tolerance • 7. Compound titration parameters • 8. […] 5 μM purified Target STING Protein • 3. 8 μM Sypro Orange Dye • 4. Buffer: 100 mM NaCl, 30 mM HEPES, pH 7.5 • 5. Thermal Ramp: 0.5° C./min • 6. <1% DMSO • 7. 11 point, 2 fold dilution, duplicate, 300 μM high concentrations • 8.

STING protein = STING protein (Homo sapiens (Human), UniProt Q86WV6, H232R); experiment: Cell based reporter assay of IRF activation (IRF-luciferase), THP1-dual-KI R232; conditions: read-out: THP1-dual-KI R232_IRF(Luciferase)_Activity Maximum measured (%)
Sequence of STING protein (Q86WV6 whole entry H232R): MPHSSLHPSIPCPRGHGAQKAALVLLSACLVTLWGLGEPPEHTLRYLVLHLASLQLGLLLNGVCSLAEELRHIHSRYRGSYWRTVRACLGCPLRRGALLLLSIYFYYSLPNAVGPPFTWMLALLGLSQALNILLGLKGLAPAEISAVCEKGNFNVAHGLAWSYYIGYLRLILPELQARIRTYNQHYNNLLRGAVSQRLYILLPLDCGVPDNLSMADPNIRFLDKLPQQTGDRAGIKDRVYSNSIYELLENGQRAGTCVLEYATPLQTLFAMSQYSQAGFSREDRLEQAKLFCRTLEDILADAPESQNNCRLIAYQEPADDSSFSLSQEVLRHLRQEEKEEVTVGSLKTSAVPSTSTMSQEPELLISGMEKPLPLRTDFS

Sequence of hSTING-WT (Q86WV6 140-379 H232R): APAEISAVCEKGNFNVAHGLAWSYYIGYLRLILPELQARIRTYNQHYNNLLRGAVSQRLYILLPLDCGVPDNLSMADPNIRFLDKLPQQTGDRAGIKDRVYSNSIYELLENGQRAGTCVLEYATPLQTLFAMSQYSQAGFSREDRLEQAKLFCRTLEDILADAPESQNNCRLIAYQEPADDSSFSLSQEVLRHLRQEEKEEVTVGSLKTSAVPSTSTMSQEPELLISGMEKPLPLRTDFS
Sequence of hSTING-R232 (Q86WV6 140-379 H232R): as above

| IC50 (mSTING) | IC50 (hSTING-WT) | MOUSE DSF_6xHIS-SUMO Tm Shift (° C.) (mSTING-R232) | WT_DSF_hSWAT Tm Shift (° C.) (hSTING-R232) | Emax (STING protein) | SMILES |
| --- | --- | --- | --- | --- | --- |
| > 300 µM | > 300 µM | B (“B” = 0-5° C.) | B (“B” = 0-2° C.) | 5 to 25% | COc1cccc2c(=O)c3ccc(Cl)c(OC)c3n(CC(=O)O)c12 [Compound 333] |
| < 20 µM | 20 to 100 µM | D (“D” > 15° C.) | D (“D” > 7° C.) | > 50% | COc1c(Cl)ccc2c(=O)c3ccc(C(C)(C)C)cc3n(CC(=O)NS(C)(=O)=O)c12 [Compound 262] |
| > 300 µM | > 300 µM | B (“B” = 0-5° C.) | B (“B” = 0-2° C.) | < 5% | COCCOc1c(Cl)ccc2c(=O)c3ccccc3n(CC(=O)O)c12 [Compound 330] |
| > 300 µM | 100 to 300 µM | B (“B” = 0-5° C.) | C (“C” = 2-7° C,) | 5 to 25% | COc1cc2c(=O)c3ccc(Cl)c(OC)c3n(CC(=O)O)c2cc1C(C)C [Compound 318] |
| < 20 µM | < 20 µM | D (“D” > 15° C.) | D (“D” > 7° C.) | < 5% | C[C@@H](O)COc1c(Cl)ccc2c(=O)c3ccccc3n(CC(=O)O)c12 [Compound 323] |
| < 20 µM | < 20 µM | D (“D” > 15° C.) | D (“D” > 7° C.) | > 50% | Cc1ccc2c(=O)c3ccc(Cl)c(-c4ccccc4)c3n(CC(=O)O)c2c1 [Compound 326] |
| 20 to 100 µM | 20 to 100 µM | C (“C” = 5-15° C.) | C (“C” = 2-7° C,) | 5 to 25% | O=C(O)Cn1c2cc(-c3cccc(F)c3)ccc2c(=O)c2ccc(Cl)c(Cl)c21 [Compound 152] |
| < 20 µM | < 20 µM | D (“D” > 15° C.) | D (“D” > 7° C.) | > 50% | CCOc1c(Cl)ccc2c(=O)c3ccc(C(C)C)cc3n(CC(=O)O)c12 [Compound 288] |
| > 300 µM | > 300 µM | C (“C” = 5-15° C.) | C (“C” = 2-7° C,) |  | COc1c(Cl)ccc2c(=O)c3ccccc3n(CC(=O)O)c12 [Compound 178] |
| < 20 µM | 20 to 100 µM | D (“D” > 15° C.) | D (“D” > 7° C.) |  | O=C(O)Cn1c2cc(Nc3ccccc3)ccc2c(=O)c2ccc(Cl)c(Br)c21 [Compound 206] |
|  | 20 to 100 µM | D (“D” > 15° C.) | D (“D” > 7° C.) | > 50% | O=C(O)Cn1c2cc(NC3CCC3)ccc2c(=O)c2ccc(Cl)c(Br)c21 [Compound 175] |
|  | 20 to 100 µM | D (“D” > 15° C.) | C (“C” = 2-7° C,) | 5 to 25% | CC1CCC(Nc2ccc3c(=O)c4ccc(Cl)c(Cl)c4n(CC(=O)O)c3c2)CC1 (stereo not shown) [Compound 140] |
|  | 20 to 100 µM | B (“B” = 0-5° C.) | B (“B” = 0-2° C.) | < 5% | CC(C)c1ccc(-c2ccc3c(c2)c(=O)c2ccc(Cl)c(Br)c2n3CC(=O)O)cc1 [Compound 109] |
|  | 100 to 300 µM | D (“D” > 15° C.) | C (“C” = 2-7° C,) | 5 to 25% | Cc1ccc(-c2ccc3c(=O)c4ccc(Cl)c(Cl)c4n(CC(=O)O)c3c2)cc1 [Compound 154] |
|  | 20 to 100 µM | C (“C” = 5-15° C.) | C (“C” = 2-7° C,) | 25 to 50% | CC(C)(C)CNc1ccc2c(=O)c3ccc(Cl)c(Br)c3n(CC(=O)O)c2c1 [Compound 148] |
|  | 20 to 100 µM | D (“D” > 15° C.) | C (“C” = 2-7° C,) | 5 to 25% | Cc1ccc(-c2ccc3c(=O)c4ccc(Cl)c(Cl)c4n(CC(=O)O)c3c2)cc1F [Compound 163] |
|  | 100 to 300 µM | A (“A” < 0° C.) | A (“A” < 0° C.) | < 5% | CC(C)c1ccc2c(=O)c3ccc(C#N)c(Cl)c3n(CC(=O)O)c2c1 [Compound 145] |
|  | 100 to 300 µM | B (“B” = 0-5° C.) | A (“A” < 0° C.) | < 5% | Cc1cc2c(cc1F)c(=O)c1ccc(Cl)c(Cl)c1n2CC(=O)O [Compound 135] |
|  | 20 to 100 µM | D (“D” > 15° C.) | C (“C” = 2-7° C,) | < 5% | CC1(C)CCC=C(c2ccc3c(=O)c4ccc(Cl)c(Cl)c4n(CC(=O)O)c3c2)C1 [Compound 157] |
|  | 20 to 100 µM | C (“C” = 5-15° C.) | C (“C” = 2-7° C,) | > 50% | CC(C)(C)CNc1ccc2c(=O)c3ccc(Cl)c(Cl)c3n(CC(=O)O)c2c1 [Compound 138] |
|  | > 300 µM | B (“B” = 0-5° C.) | A (“A” < 0° C.) | < 5% | Cc1ccc2c(=O)c3ccc(Cl)cc3n(C(C)C(=O)O)c2c1 (stereo not shown) [Compound 171] |
|  | 20 to 100 µM | D (“D” > 15° C.) | C (“C” = 2-7° C,) | 5 to 25% | O=C(O)Cn1c2cc(-c3ccc(F)cc3)ccc2c(=O)c2ccc(Cl)c(Cl)c21 [Compound 153] |
|  | < 20 µM | D (“D” > 15° C.) | C (“C” = 2-7° C,) | < 5% | CC1(C)CCCC(c2ccc3c(=O)c4ccc(Cl)c(Cl)c4n(CC(=O)O)c3c2)C1 (stereo not shown) [Compound 158] |
|  | 100 to 300 µM | D (“D” > 15° C.) | C (“C” = 2-7° C,) | < 5% | O=C(O)Cn1c2cc(-c3cccc(Cl)c3)ccc2c(=O)c2ccc(Cl)c(Cl)c21 [Compound 155] |
|  | 20 to 100 µM | C (“C” = 5-15° C.) | B (“B” = 0-2° C.) | 25 to 50% | CC(C)c1ccc2c(=O)c3ccc(Br)c(Cl)c3n(CC(=O)O)c2c1 [Compound 170] |
|  | > 300 µM | B (“B” = 0-5° C.) | B (“B” = 0-2° C.) | < 5% | CC(C)c1ccc2c(=O)c3ccc(Cl)c(Cl)c3n(C)c2c1 [Compound 174] |
|  | 100 to 300 µM | C (“C” = 5-15° C.) | C (“C” = 2-7° C,) | 5 to 25% | O=C(O)Cn1c2cc(-c3ccncc3)ccc2c(=O)c2ccc(Cl)c(Cl)c21 [Compound 189] |
|  | 100 to 300 µM | A (“A” < 0° C.) | A (“A” < 0° C.) | < 5% | Cc1cccc2c(=O)c3cccc(C)c3n(CC(=O)O)c12 [Compound 132] |
|  | 20 to 100 µM | D (“D” > 15° C.) | C (“C” = 2-7° C,) | < 5% | CC1(C)CCCC(Nc2ccc3c(=O)c4ccc(Cl)c(Cl)c4n(CC(=O)O)c3c2)C1 (stereo not shown) [Compound 139] |

Source: patent US11414387B2, “Oxoacridinyl acetic acid derivatives and methods of use” (Stingthera, Inc., priority 2017, dated 2022)
